pIC50: −log10 of the molar value.
Target: T1, met (HGF receptor) in human gastric cancer cells MKN45 (Homo sapiens, UniProt P08581)
T1 construct: endogenous in cells; host or cells: MKN45 human gastric cancer cells
Assay: Inhibitory activity against met-autophosphorylation using ELISA method (2), MKN45 cells, HGF-independent
Assay type: cell-based
Summary of the method: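 Met autophosphorylation was read by sandwich ELISA: phosphotyrosine capture (PY20), anti-HGF receptor detection, peroxidase read-out at 450 nm. Lysates came from MKN45 gastric cancer cells kept in 0.1% FCS RPMI and treated 1 h at 37 °C with test compound, with no added HGF.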

T1 sequence (P08581 25-1390): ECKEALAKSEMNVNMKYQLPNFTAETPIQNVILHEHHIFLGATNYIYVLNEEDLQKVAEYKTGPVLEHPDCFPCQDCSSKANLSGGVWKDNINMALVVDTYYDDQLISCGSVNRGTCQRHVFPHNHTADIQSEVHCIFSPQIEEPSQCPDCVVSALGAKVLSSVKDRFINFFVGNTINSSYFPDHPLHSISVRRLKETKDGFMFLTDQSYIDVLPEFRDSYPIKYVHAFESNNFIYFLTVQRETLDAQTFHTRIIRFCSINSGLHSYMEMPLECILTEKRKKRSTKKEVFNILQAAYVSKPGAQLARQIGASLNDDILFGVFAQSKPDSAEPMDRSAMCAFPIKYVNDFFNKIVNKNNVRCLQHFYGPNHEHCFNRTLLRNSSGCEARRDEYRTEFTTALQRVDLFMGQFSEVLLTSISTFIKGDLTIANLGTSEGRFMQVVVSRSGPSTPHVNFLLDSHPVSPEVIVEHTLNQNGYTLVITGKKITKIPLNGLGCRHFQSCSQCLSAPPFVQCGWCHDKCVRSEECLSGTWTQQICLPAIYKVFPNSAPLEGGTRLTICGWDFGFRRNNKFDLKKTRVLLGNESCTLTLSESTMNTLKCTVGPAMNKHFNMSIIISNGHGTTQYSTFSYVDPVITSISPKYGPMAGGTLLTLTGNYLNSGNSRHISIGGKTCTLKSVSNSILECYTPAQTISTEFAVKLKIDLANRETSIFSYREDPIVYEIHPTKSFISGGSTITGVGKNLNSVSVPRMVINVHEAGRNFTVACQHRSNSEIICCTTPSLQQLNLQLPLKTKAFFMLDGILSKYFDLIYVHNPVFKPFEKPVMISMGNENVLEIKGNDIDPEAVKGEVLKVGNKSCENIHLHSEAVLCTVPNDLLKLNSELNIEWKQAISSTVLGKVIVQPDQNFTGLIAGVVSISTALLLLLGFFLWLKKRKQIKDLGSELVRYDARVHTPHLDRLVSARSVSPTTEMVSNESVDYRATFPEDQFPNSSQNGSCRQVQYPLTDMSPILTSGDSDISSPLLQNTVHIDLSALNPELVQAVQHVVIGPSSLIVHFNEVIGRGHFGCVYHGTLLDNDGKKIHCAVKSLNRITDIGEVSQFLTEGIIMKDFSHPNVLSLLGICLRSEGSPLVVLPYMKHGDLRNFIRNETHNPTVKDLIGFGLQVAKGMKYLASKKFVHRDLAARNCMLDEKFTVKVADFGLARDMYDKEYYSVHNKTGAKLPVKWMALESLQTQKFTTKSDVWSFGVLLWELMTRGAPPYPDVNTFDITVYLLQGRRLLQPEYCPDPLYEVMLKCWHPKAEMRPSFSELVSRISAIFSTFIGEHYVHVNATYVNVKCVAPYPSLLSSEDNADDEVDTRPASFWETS

pIC50	Compound
6.07	COc1cc2nccc(Oc3ccc(NC(=O)NC(=O)Nc4ccc(Cl)cc4C)cc3)c2cc1OC [Example 242, N-(4-chloro-2-methylphenyl)-({[4-(6,7-dimethoxyquinolin-4-yloxy)anilino]carbonyl}amino)-methanamide]
7.65	COc1cc2c(Oc3ccc(NC(=S)NC(=O)Cc4ccccc4)cc3Cl)ccnc2cc1OCCCN1CCOCC1 [Example 300, 1-{3-Chloro-4-[6-methoxy-7-(3-morpholin-4-yl-propoxy)-quinolin-4-yloxy]-phenyl}-3-phenylacetyl-thiourea]
5.62	COc1cc2nccc(Oc3ccc(NC(=O)NC(=O)CN4CCSCC4)cc3Cl)c2cc1OC [Example 131, 1-[3-chloro-4-(6,7-dimethoxyquinolin-4-yloxy)phenyl]-3-(2-thiomorpholin-4-ylacetyl)urea]
6.64	COc1cc2c(Oc3ccc(NC(=O)NC(=O)Cc4ccc(F)cc4)cc3F)ccnc2cc1OCCCN1CCOCC1 [Example 46, 1-{3-fluoro-4-[6-methoxy-7-(3-morpholin-4-yl-propoxy)quinolin-4-yloxy]phenyl}-3-[2-(4-fluorophenyl)-acetyl]urea]
7.62	COc1cc2c(Oc3ccc(NC(=S)NC(=O)Cc4ccccc4)cc3F)ccnc2cc1OCCN1CCCN(C)CC1 [Example 273, 1-(3-Fluoro-4-{6-methoxy-7-[2-(4-methyl-[1,4]diazepan-1-yl)-ethoxy]-3-quinolin-4-yloxy}-phenyl)-3-phenylacetyl-thiourea]
6.52	COc1cc2nccc(Oc3ccc(NC(=O)NC(=O)CN4CCc5ccccc54)cc3F)c2cc1OC [Example 122, 1-[2-(2,3-dihydro-1H-1-indol-1-yl)acetyl]-3-[4-(6,7-dimethoxyquinolin-4-yloxy)-3-fluorophenyl]urea]
5.48	COc1cc2nccc(Oc3ccc(NC(=O)NC(=O)Nc4ccc(CC#N)cc4)cc3)c2cc1OC [Example 241, N-[4-(cyanomethyl)phenyl]-({[4-(6,7-dimethoxyquinolin-4-yloxy)anilino]carbonyl}amino)-methanamide]
6.31	CCOCCC(=O)NC(=S)Nc1ccc(Oc2ccnc3cc(OC)c(OC)cc23)c(F)c1 [Example 165, 1-[4-(6,7-dimethoxyquinolin-4-yloxy)-3-fluorophenyl]-3-(3-ethoxypropionyl)thiourea]
6.59	COc1cc2nccc(Oc3ccc(NC(=O)NC(=O)Nc4cc(C)on4)cc3)c2cc1OC [Example 232, N-(5-methyl-3-isoxazolyl)-({[4-(6,7-dimethoxyquinolin-4-yloxy)anilino]carbonyl}amino)-methanamide]

The next lines start with the molecule.

Compound	pIC50
COc1cc2nccc(Oc3ccc(NC(=O)NC(=O)Cc4ccsc4)cc3F)c2cc1OC [Example 20, 1-[4-(6,7-dimethoxyquinolin-4-yloxy)-3-fluoro-phenyl]-3-(2-thiophen-3-ylacetyl)urea]	7.50
COc1cc2nccc(Oc3ccc(NC(=O)NC(=O)Nc4ncc(C)cc4Br)cc3)c2cc1OC [Example 230, N-(3-bromo-5-methyl-2-pyridyl)-({[4-(6,7-dimethoxyquinolin-4-yloxy)anilino]carbonyl}amino)-methanamide]	6.47
COc1cc2c(Oc3ccc(NC(=O)NC(=O)Cc4ccccc4F)cc3F)ccnc2cc1OCCCN1CCN(C)CC1 [Example 296, 1-(3-Fluoro-4-{6-methoxy-7-[3-(4-methyl-piperazin-1-yl)-propoxy]-quinolin-4-yloxy}-phenyl)-3-[2-(2-fluoro-phenyl)-acetyl]-urea]	7.71
COc1cc2nccc(Oc3ccc(NC(=O)CC(=O)NC4CCCCC4)cc3)c2cc1OC [Example 217, N-cyclohexyl-N′-[4-(6,7-dimethoxyquinolin-4-yloxy)phenyl]malonamide]	6.48
COc1cc2nccc(Oc3ccc(NC(=S)NC(=O)Cc4ccccc4[N+](=O)[O-])cc3Cl)c2cc1OC [Example 156, 1-[3-chloro-4-(6,7-dimethoxyquinolin-4-yloxy)phenyl]-3-[2-(2-nitrophenyl)acetyl]thiourea]	6.43
COc1cc2c(Oc3ccc(NC(=O)NC(=O)Cc4ccccc4)cc3F)ccnc2cc1OCCCN1CCCCC1 [Example 52, 1-{3-fluoro-4-[6-methoxy-7-(3-piperidin-1-yl-propoxy)quinolin-4-yloxy]phenyl}-3-phenylacetylurea]	6.77
COc1cc2nccc(Oc3ccc(NC(=O)NC(=O)Nc4cccc(C)c4)cc3)c2cc1OC [Example 256, N-(3-methylphenyl)-({[4-(6,7-dimethoxy-quinolin-4-yloxy)anilino]carbonyl}amino)methanamide]	6.55
COc1cc2nccc(Oc3ccc(NC(=S)NC(=O)C4CCCC4)c(F)c3)c2cc1OC [Example 143, 1-cyclopentanecarbonyl-3-[4-(6,7-dimethoxy-quinolin-4-yloxy)-2-fluorophenyl]thiourea]	5.44
COc1cc2nccc(Oc3ccc(NC(=S)NC(=O)Cc4cccc(C(F)(F)F)c4)cc3F)c2cc1OC [Example 203, 1-[4-(6,7-dimethoxyquinolin-4-yloxy)-3-fluorophenyl]-3-[2-(3-trifluoromethylphenyl)acetyl]-thiourea]	6.55
COc1cc2c(Oc3ccc(NC(=S)NC(=O)Cc4ccccc4)cc3F)ccnc2cc1OCCN1CCN(C)CC1 [Example 270, 1-(3-Fluoro-4-{6-methoxy-7-[2-(4-methyl-piperazin-1-yl)-ethoxy]-quinolin-4-yloxy}-phenyl)-3-phenylacetyl-thiourea]	7.57
COc1cccc(CC(=O)NC(=S)Nc2ccc(Oc3ccnc4cc(OC)c(OC)cc34)cc2)c1 [Example 184, 1-[4-(6,7-dimethoxyquinolin-4-yloxy)phenyl]-3-[2-(3-methoxyphenyl)acetyl]thiourea]	6.57
COc1cc2nccc(Oc3ccc(NC(=O)NC(=O)Cc4ccc(F)cc4)cc3)c2cc1OC [Example 22, 1-[4-(6,7-dimethoxyquinolin-4-yloxy)phenyl]-3-[2-(4-fluorophenyl)acetyl]urea]	7.61
COc1cc2c(Oc3ccc(NC(=O)NC(=O)Cc4ccccc4)cc3F)ccnc2cc1OCCN1CCC(CO)CC1 [Example 283]	7.84
COc1cc2nccc(Oc3ccc(NC(=S)NC(=O)Cc4ccc(Cl)cc4)cc3)c2cc1OC [Example 187, 1-[2-(4-chlorophenyl)acetyl]-3-[4-(6,7-dimethoxyquinolin-4-yloxy)phenyl]thiourea]	6.59
COc1cc2nccc(Oc3ccc(NC(=S)NC(=O)Cc4ccccc4)c(Cl)c3)c2cc1OC [Example 65, 1-[2-chloro-4-(6,7-dimethoxyquinolin-4-yloxy)-phenyl]-3-phenylacetylthiourea]	7.18
COc1cc2nccc(Oc3ccc(NC(=S)NC(=O)CC4CCC(C)CC4)cc3F)c2cc1OC (stereo not drawn) [Example 192, 1-[4-(6,7-dimethoxyquinolin-4-yloxy)-3-fluorophenyl]-3-[2-(4-methyl-cyclohexyl)acetyl]thiourea]	6.16
COc1cc2nccc(Oc3ccc(NC(=S)NC(=O)Cc4ccccc4)cc3OC)c2cc1OC [Example 68, 1-[4-(6,7-dimethoxyquinolin-4-yloxy)-3-methoxyphenyl]-3-phenylacetylthiourea]	6.71
COc1cc2nccc(Oc3ccc(NC(=O)NC(=O)Nc4cc(C)ccn4)cc3)c2cc1OC [Example 105, N-(4-methyl-2-pyridyl)-({[4-(6,7-dimethoxy-quinolin-4-yloxy)anilino]carbonyl}amino)methanamide]	6.98
